Results on five compounds are retold here after article PMC10384782, “New Phenolic Lipids from the Leaves of Clausena harmandiana Inhibit SARS-CoV-2 Entry into Host Cells” (Molecules, 2023).

In general, inhibition refers to the percentage by which the read-out fell short of the control.

The test system of data set [1] is SARS-CoV-2. As to the kind of experiment: microbe, parasite or virus in culture. Format: cell-based. The conditions noted are these: for selectivity index (SI): SARS-CoV-2, Vero-E6 cells; for IC50: Severe acute respiratory syndrome coronavirus 2, Vero C1008, 48 h, read-out: IC50 against SARS-CoV-2.
Data set [2] has as its system HCoV-229E. Kind of data set: HCoV-229E-Luc infection inhibition assay (fractions and pure compounds) in Huh7 cells. Conditions: for IC50: Human coronavirus 229E, Huh-7, 12 h, read-out: IC50 (concentration inhibited infection by 50%). Format: cell-based.
Data set [3] in a line: in vitro. The conditions noted are these: African green monkey.
Data set [4] can be described thus: in vitro. The conditions noted are these: human.
The test system of data set [5] is SARS-CoV-2. Format: cell-based.
For data set [6], the system named is HCoV-229E. Kind of data set: microbe, parasite or virus in culture. Conditions: Human coronavirus 229E, Huh-7; read-out: inhibition of infection after pre-incubation of virus particles. Format: cell-based.
Data set [7] concerns HCoV-229E. As to the kind of experiment: Time-of-drug addition assay in HCoV-229E-Luc-infected Huh7 cells. Format: cell-based. The conditions noted are these: 2 and 3 at 0.2 µM; for inhibition of infection when present during the virus entry step: Q3G 25 µM, co-added with virus for 1 h; for inhibition of infection when added after virus inoculation (replication step): Remdesivir 0.1 µM, luciferase activity.

Entries after “also recorded” stand apart in the source; their conditions may differ.

On to `CCCC=CCCCCCCCCCCCC(O)Cc1cc(O)ccc1O` (stereo not drawn) [Compound 1, (2′. R)-2-[(14′Z)-2′-Hydroxyoctadec-14′-en-1′-yl]benzene-1,4-diol], for which the “antiviral activity against SARS-CoV-2 (in words)” value with SARS-CoV-2 [1] (Vero-E6 cells, non-cytotoxic concentrations) was “no antiviral activity”. The “antiviral activity against HCoV-229E (in words)” value in the data set on HCoV-229E [2] (non-cytotoxic doses (up to 0.25 µM), Huh7 cells) is reported as “no antiviral effect; also recorded: no antiviral activity”. Further, the CC50 is 1500 ± 200 nM in the data set “in vitro [3]” and 1300 ± 100 nM in “in vitro [4]”.
Turning to `CCCCC=CCCCCCCCCCCCC(O)Cc1cc(O)ccc1O` (stereo not drawn) [Compound 2, (2′R)-2-[(14′Z)-2′-hydroxynonadec-14′-en-1′-yl]benzene-1,4-diol], the “decrease of viral progeny (residual infectivity)” value in the data set with SARS-CoV-2 [5] is reported as “up to 1 log”. For the same compound, in the data set on SARS-CoV-2 [1], the “selectivity index (SI)” value is listed as 2.5 and the IC50 turned out to be 200 nM. Also, the inhibition at 0.2 µM with HCoV-229E [6] was at most 60%. In addition, in the data set with HCoV-229E [7], the “inhibition of infection when present during the virus entry step” value was “strong inhibition of infection” and the “inhibition of infection when added after virus inoculation (replication step)” value (“inhibition of infection when added” below) is “no inhibition of infection”. Moreover, in the data set on HCoV-229E [2], the “SI, selectivity index (CC50/IC50)” value worked out at 5 and the IC50 stood at 100 ± 30 nM. The “effect on HCoV-229E-Luc infection at 0.01 µM without pre-incubation” value with HCoV-229E [2] (Huh7 cells) is “does not inhibit”. In the data set “in vitro [3]”, the CC50 came to 500 ± 80 nM. The CC50 in “in vitro [4]” is 500 ± 50 nM.
Turning to `CCCCCCCCCCCCCCCC[C@@H](O)Cc1cc(O)ccc1O` [Compound 3, (2′R)-(2-(2-hydroxyoctadecyl)benzene-1,4-diol)], in the data set with SARS-CoV-2 [1], the “selectivity index (SI)” value turned out to be 18 and the IC50 was 50 nM. Further, in the data set with HCoV-229E [6], the inhibition at 0.2 µM is at most 80%. For the same compound, in the data set with HCoV-229E [7], the “inhibition of infection when present during the virus entry step” value is given as “strong inhibition of infection” and the “inhibition of infection when added” value was “no inhibition of infection”. Besides, in the data set with HCoV-229E [2], the “SI, selectivity index (CC50/IC50)” value came to 16 and the IC50 amounted to 50 ± 40 nM. Also, the “effect on HCoV-229E-Luc infection at 0.01 µM without pre-incubation” value with HCoV-229E [2] (Huh7 cells) is “does not inhibit”. For the same compound, in the data set “in vitro [3]”, the CC50 came to 900 ± 200 nM. In addition, the CC50 in “in vitro [4]” was determined as 800 ± 100 nM.
Regarding `O=c1c(O[C@@H]2O[C@H](CO)[C@@H](O)[C@H](O)[C@H]2O)c(-c2ccc(O)c(O)c2)oc2cc(O)cc(O)c12` [Compound Q3G, Isoquercitrin, reference compound], in the data set on HCoV-229E [7], the “inhibition of infection when present during the virus entry step” value is on record as “strong inhibition of infection”.
For the compound `CCC(CC)COC(=O)[C@H](C)N[P@](=O)(OC[C@H]1O[C@@](C#N)(c2ccc3c(N)ncnn23)[C@H](O)[C@@H]1O)Oc1ccccc1` [Remdesivir, reference compound], in the data set on HCoV-229E [7], the “inhibition of infection when added” value is listed as “strongly inhibited viral replication”.
